Data set [1] has as its system OVA-induced AHR mouse model. Put plainly: Suppression of OVA-induced airway inflammation in vivo (IL-13 and IL-4 in BALF and lungs). Conditions: OVA-induced AHR experiment. The protocol:
FIG. 8. […] The bronchoalveolar lavage fluid (BALF) from mice in the OAV-induced AHR experiment was examined forth IL-13 and IL-4 levels.
FIG. 9. […] The lungs from mice in the OAV-induced AHR experiment was examined for their IL-13 and IL-4 protein level.
FIG. 10. […] The lungs from mice in the OAV-induced AHR experiment was examined for their IL-13 and IL-4 mRNA levels.
For ovalbumin (OVA) challenge, mice were sensitized intraperitoneally (i.p.) with 50 μg of OVA with 2% alhydrogel adjuvant (InvivoGen). Mice were challenged three times with 50 μg of OVA on day 7 post-sensitization, either daily or every other day. Mice were sacrificed the day after the last OVA challenge. The scheme of the OT-1 adoptive transfer mouse model for examining the proliferation of CD8^+ T cells in adjuvanting OVA challenge is described in FIG. 13.
Upon exposure of the trachea, the lungs were lavaged twice with 1 mL of PBS supplemented with 2% fetal calf serum (FCS). BALF was pooled and bronchoalveolar (BAL) cells were pelleted by centrifugation and fixed onto cytospin slides. The slides were stained with Diff-Quik solution (Polysciences Inc) and BAL differential cell count was performed.
Using the Th2 OVA-induced AHR mouse model, we assessed the capability of selected compounds 8, 12, 18, and 27 in suppressing Th2 inflammation.

Data set [2] concerns bone marrow-derived macrophages (BMDM) treated with LPS. Put plainly: Suppression of LPS-induced inflammation in bone marrow-derived macrophages (BMDM in vitro). The data set is classed as cell-based. Conditions: BMDM (FIG. 2). The source says:
Since macrophage is the major responder to LPS-induced inflammation, we assessed the capability of selected compounds to suppress LPS-induced inflammation in bone marrow-derived macrophages (BMDM).

Data set [3] has as its system glycosidases of human fibroblast lysates. In words: Stability of the glycosidic linkage to glycosidases upon incubation with human fibroblast lysates. The data set is classed as in vitro ADME. Conditions: 4 h, 37° C., compound solution 200 μM, 0.1 M citrate buffer pH 4.5. The protocol: The stability of the glyosidic linkage in compounds 2, 4, 6, 8, 10, 12, 14, 16, 18, 20, 22, 23, 25, 27 and 29, selected as representative examples, upon incubation with human fibroblast lysates for 4 h was checked. For such purpose, cells were scraped into ice-cold H2O (10^6 cells mL^−1) and lysed by sonication. Insoluble materials were removed by centrifugation at 15,000 rpm for 5 min and protein concentrations were determined with Protein Assay Rapid Kit (WAKO, Tokyo, Japan). 10 μL of the lysates in 0.1% Triton X-100 in distilled water were incubated at 37° C. with 20 μL of the compound solution (200 μM) in 0.1 M citrate buffer, pH 4.5. In control experiments, the activity of several lysosomas glycosidases was confirmed using fluorescent substrates. The substrates were 4-methylumbelliferone (4-MU)-conjugated β-D-glucopyranoside (for GCase), α-D-glucopyranoside (for α-glucosidase), α-D-galactopyranoside (for α-Galase) and β-D-galactopyranoside (for β-galactosidase). The liberated 4-methylumbelliferone was measured in the black-well plate with a Perkin Elmer Luminescence Spectrometer (excitation wavelength: 340 nm; emission: 460 nm).

The subject of another data set is p38. In words: Signal transduction by multiplex bead array: p38 phosphorylation. It is filed as cell-based. As to conditions: comparing to LPS treatment alone (FIG. 4). The source says: FIG. 4. […] Compound 12, a representative compound of the invention, was examined in term of signal transduction to explore how the new compounds exert their suppressive effect, using the multiplex bead array.
Using the multiplex bead array, we examined how the new compounds might exert their suppressive effect in term of signal transduction.

Data set [4] relates to LPS-induced inflammation in B6 mice. Put plainly: Suppression of LPS-induced inflammation in vivo. Conditions: injected twice in a half hour time after LPS-treatment (FIG. 3). Here is the method:
FIG. 3. […] The in vivo capability of compound 12 in suppressing LPS-induced inflammation in B6 mice was assessed as indicated in the scheme.
To determine the anti-inflammatory function in vivo, we assessed the capability of compound 12 in suppressing LPS-induced inflammation in B6 mice.

Data set [5] has as its system bone marrow-derived dendritic cells (BMDC) from MyD88 KO mice. Put plainly: MyD88 dependency of IL-12p40 production (BMDCs in vitro). It is filed as cell-based. As to conditions: BMDC from MyD88 KO mice compared with BMDC from wild-type mice; dose-dependent (FIG. 15). The source says: FIG. 15. […] The effect was dose-dependent, and the difference became more pronounced at a higher concentration.
To determine whether the adjuvancy function of the representative compound 12 is MyD88-dependent or not, we performed experiments with immune cells isolated from MyD88 knocked-out (KO) mice. […] Data are dose-dependent and differences become more pronounced at the higher concentrations. […] Taken together, the results support that compound 12 adjuvancy function is MyD88-dependent.

The mark [6] stands for this setting: bronchoalveolar lavage fluid (FIG. 8).

Take `CCCCCCCCCCCCNC(=O)C(COC1C(O)C(O)C(O)C2COC(=O)N21)NC(=O)CCCCCCCCCCC` (centres unmarked) [Compound 12]: in data set [1] (setting [6]), the “IL-4 level in BALF” value is “significantly suppressed” and the “IL-13 level in BALF” value is recorded as “significantly suppressed”. For the same molecule, in data set [1] (lung mRNA (FIG. 10)), the “IL-4 mRNA level in lungs” value was “could significantly suppress” and the “IL-13 mRNA level in lungs” value is “significantly suppressed”. For the same molecule, in data set [1] (lung protein (FIG. 9)), the “IL-4 protein level in lungs” value was “significantly suppressed” and the “IL-13 protein level in lungs” value is “significantly suppressed”. The “suppression of LPS-induced inflammation” value in data set [2] is recorded as “particularly efficient in suppressing LPS-induced inflammation”. In data set [2] (LPS-induced), the “suppression of IL-6” value was “significant suppression” and the “suppression of TNFα” value was “significant suppression”. Besides, the “hydrolysis of the glycolipid mimetic (free polysubstituted 2-oxa-3-oxoindolizidine detected by gas chromatography)” value in data set [3] is reported as “No traces of the free polysubstituted 2-oxa-3-oxoindolizidine”. In addition, the “phosphorylation of p38” value with p38 is reported as “significantly reduced”. In data set [4], the “level of IL-6 in sera” value is listed as “significantly suppressed” and the “level of TNFα in sera” value is reported as “significantly suppressed”. For the same molecule, the “IL-12p40 production in response to compound” value in data set [5] is “severely curtailed”.

These data come from patent publication US20250154165A1, “MULTIANTENNARY GLYCOLIPID MIMETICS” (CONSEJO SUPERIOR DE INVESTIGACIONES CIENTÍFICAS (CSIC), priority 2021, published 2025).
